# Experiments:
# [1] = acute in vivo toxicity after intravenous injection; design: species or system mouse
# Method: Acute in vivo toxicity. All animal experiments were performed in accordance with protocols approved by the Institutional Animal Care and Use Committee of MSK and followed the National Institute of Health guidelines for animal welfare. Six athymic nude mice 6-8 weeks old were purchased from Envigo RMS, Inc. An intravenous (IV) catheter was placed in tail vein of each mouse and they were anesthetized using Isoflurane (Novaplus, Telangana-India). Anesthesia was maintained using 1.0 to 1.5 L/min of Isoflurane and 2 L/min of oxygen. Three animals were injected with 68 μM, 7 nmol Hsp1a-FL in 100 μL of PBS, and the other three with […], of PBS. Animals were monitored using a rodent surgical monitor (Indus instruments, Houston, Tex.) before, during, and up to 16 minutes after injection. Numeric data points represent averaged values of 5±1 seconds duration. Data was collected before injection, 15 seconds after injection, 5 minutes after injection and 15 minutes after injection. Mouse body core temperature was measured by placing a rectal probe and electronically regulated via a surgical platform. The high-resolution electrocardiogram (EKG) was measured by placing non-invasive electrodes on the 4 paws and electrical contact was assured using a conducting gel (Electrode cream, Indus instruments, Houston, Tex.). Heart rate was automatically calculated from the R-R peaks derived from the EKG signal. Peripheral capillary oxygen saturation (SpO2) was non-invasively measured by placing a clip sensor on the animal's left thigh.
# Statistical Analysis. Data were statistically analyzed by generalized estimating equations followed by LSD post hoc test when appropriate using SPSS 23.0. During animal toxicity studies, data points representing loss of signal were excluded from the analysis. Loss of signal was defined by a brief contact loss between the monitoring equipment and the mice (creating a “false” zero or −1 result). Loss of signal was corrected by placing the electrode in close contact to the mice. Average and standard deviations were calculated for each mouse.
# Unless otherwise stated, data points represent mean values and error bars represent the standard deviation of biological replicates (mean±SEM). All p-values were calculated using a Student's unpaired t-test. Statistical significance was considered for p-values<0.05 and as follows: ns=not significant, *p<0.05, **p<0.01, ***p<0.001. Mann-Whitney tests were used for analysis of the unpaired samples (e.g. vital signs in mice injected with Hsp1a and mice from the control group) and the Wilcoxon test was used for analysis of paired samples (e.g. vital signs from same mouse before and after injection). Statistical significance was determined with alpha=0.05. Analysis and figures were prepared in GraphPad Prism 8.
# [2] = 10 μM, 37° C.
# hNav1.7 = biological target: T1, hNav1.7 (Homo sapiens, UniProt Q15858); experiment: conventional whole cell patch clamp, kinetic studies on hNav1.7; format: cell-based
# T1 construct: host or cells: HEK293
# Method: Conventional patch clamp. Coverslips containing cells of HEK293 stable expressing hNav1.7 α and human β1 subunits were placed in a recording chamber on the stage of an inverted microscope with the extracellular solution containing 140 mM NaCl, 2 mM CaCl2, 4 mM KCl, 1 mM MgCl2, and 10 mM HEPES (pH 7.4 with NaOH). […] All recordings were made at room temperature (22-24° C.) using MultiClamp 700B amplifier, Axo™ Digidata® 1550B and PCLAMP software (Molecular Devices). Nav channel currents were measured using the whole cell configuration of the patch clamp technique. All peptides were dissolved in the extracellular solution with 0.1% BSA. The effects of peptides were tested by using the same voltage protocol as showing in the Qpatch technique. Concentration response data were analysed using nonlinear least-squares fit of the log (inhibitor) vs. response (three parameters) (GraphPad Prism 7) to provide pIC50 determinations. The conductance-voltage (G-V) relationships obtained by using a protocol in which cells depolarised from a holding potential of −120 mV, stepping from −80 to +60 mV in 5 mV increments. Steady-state inactivation was obtained by applying a depolarisation to 0 mV following a series step potential from −120 mV to 20 mV in 5 mV increments. The V0.5 activation and inactivation were calculated by fitting data with Boltzmann equation in GraphPad Prism 7. Recovery from fast inactivation was obtained by applying a first 0 mV pulse followed by repolarisation to −120 mV and a second pulse to 0 mV after a period ranging from 0 to 50 ms, increasing in 1 ms increments. The time constant was calculated by fitting data with one-phase decay in GraphPad Prism 7.
# hNav1.3 = biological target: T2, hNav1.3 (Homo sapiens, UniProt Q9NY46); experiment: automated whole-cell patch clamp (QPatch 16X), HEK293-hNav1.3; format: cell-based
# T2 construct: host or cells: HEK293
# hNav1.6 = biological target: T3, hNav1.6 (Homo sapiens, UniProt Q9UQD0); experiment: automated whole-cell patch clamp (QPatch 16X), HEK293-hNav1.6; format: cell-based
# T3 construct: host or cells: HEK293
# hNav1.2 = biological target: T4, hNav1.2 (Homo sapiens, UniProt Q99250); experiment: automated whole-cell patch clamp (QPatch 16X), HEK293-hNav1.2; format: cell-based
# T4 construct: host or cells: HEK293
# hNav1.5 = biological target: T5, hNav1.5 (Homo sapiens, UniProt Q14524); experiment: automated whole-cell patch clamp (QPatch 16X), HEK293-hNav1.5; format: cell-based
# T5 construct: host or cells: HEK293
# hNav1.1 = biological target: T6, hNav1.1 (Homo sapiens, UniProt P35498); experiment: automated whole-cell patch clamp (QPatch 16X), HEK293-hNav1.1; format: cell-based
# T6 construct: host or cells: HEK293
# [3] = before, 15 seconds, 5 and 15 minutes after injection
# [4] = 60 nM, compared to vehicle, P<0.01
# T5 sequence (Q14524 whole entry): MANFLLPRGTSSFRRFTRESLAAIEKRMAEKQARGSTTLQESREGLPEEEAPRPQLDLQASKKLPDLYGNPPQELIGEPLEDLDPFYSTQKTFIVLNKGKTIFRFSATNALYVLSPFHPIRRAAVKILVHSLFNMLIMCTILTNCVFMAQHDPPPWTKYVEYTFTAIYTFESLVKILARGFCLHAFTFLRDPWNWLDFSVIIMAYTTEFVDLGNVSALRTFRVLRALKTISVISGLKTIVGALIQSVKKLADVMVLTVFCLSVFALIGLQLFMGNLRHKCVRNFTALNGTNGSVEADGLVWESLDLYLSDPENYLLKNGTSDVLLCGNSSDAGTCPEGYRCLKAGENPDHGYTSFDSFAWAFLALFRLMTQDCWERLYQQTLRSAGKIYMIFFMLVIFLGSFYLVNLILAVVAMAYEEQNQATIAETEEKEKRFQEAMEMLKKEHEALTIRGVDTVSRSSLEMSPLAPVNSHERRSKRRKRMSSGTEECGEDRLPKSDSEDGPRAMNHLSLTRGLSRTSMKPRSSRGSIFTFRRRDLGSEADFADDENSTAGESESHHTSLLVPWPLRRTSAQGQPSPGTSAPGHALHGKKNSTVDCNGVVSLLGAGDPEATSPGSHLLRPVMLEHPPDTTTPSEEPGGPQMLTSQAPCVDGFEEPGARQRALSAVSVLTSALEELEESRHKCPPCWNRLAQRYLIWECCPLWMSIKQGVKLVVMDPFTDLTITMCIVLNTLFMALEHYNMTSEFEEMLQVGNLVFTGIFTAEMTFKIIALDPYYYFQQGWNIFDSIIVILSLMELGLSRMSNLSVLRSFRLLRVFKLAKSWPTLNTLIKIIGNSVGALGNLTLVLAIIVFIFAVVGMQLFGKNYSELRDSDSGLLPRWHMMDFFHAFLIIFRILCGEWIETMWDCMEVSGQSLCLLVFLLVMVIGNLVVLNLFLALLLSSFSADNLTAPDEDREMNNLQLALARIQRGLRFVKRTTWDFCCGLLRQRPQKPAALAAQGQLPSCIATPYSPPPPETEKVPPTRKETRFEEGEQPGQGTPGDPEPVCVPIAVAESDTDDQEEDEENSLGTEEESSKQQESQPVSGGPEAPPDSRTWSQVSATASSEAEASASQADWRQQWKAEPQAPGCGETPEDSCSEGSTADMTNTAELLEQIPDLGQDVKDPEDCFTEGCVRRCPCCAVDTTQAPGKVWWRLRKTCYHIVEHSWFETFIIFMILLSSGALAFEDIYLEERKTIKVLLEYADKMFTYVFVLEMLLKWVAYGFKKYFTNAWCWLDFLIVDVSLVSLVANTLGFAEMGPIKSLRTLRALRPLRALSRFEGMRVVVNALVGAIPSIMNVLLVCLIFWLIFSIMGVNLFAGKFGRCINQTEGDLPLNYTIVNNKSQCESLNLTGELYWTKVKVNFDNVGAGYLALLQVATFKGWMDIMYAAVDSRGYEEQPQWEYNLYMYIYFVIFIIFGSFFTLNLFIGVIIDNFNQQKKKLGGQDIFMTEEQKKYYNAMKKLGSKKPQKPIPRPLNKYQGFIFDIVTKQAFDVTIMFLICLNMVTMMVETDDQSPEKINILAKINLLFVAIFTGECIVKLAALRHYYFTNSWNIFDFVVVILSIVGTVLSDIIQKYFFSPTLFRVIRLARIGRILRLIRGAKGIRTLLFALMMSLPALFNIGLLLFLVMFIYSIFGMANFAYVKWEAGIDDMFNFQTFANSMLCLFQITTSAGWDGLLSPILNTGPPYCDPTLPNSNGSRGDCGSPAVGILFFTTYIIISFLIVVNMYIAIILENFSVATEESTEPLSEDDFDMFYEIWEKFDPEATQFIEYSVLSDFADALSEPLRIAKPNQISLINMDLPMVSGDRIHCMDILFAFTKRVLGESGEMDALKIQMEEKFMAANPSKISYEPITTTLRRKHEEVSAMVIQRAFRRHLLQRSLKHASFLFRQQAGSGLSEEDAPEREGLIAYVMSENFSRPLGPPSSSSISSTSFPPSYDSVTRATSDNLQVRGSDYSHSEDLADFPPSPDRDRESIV
# T2 sequence (Q07699 19-218): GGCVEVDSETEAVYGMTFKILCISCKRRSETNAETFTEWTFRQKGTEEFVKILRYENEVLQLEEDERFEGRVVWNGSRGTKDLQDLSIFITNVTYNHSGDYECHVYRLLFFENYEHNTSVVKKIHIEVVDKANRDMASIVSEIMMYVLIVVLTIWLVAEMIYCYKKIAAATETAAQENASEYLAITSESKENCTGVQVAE
# T2 sequence (Q9NY46 whole entry): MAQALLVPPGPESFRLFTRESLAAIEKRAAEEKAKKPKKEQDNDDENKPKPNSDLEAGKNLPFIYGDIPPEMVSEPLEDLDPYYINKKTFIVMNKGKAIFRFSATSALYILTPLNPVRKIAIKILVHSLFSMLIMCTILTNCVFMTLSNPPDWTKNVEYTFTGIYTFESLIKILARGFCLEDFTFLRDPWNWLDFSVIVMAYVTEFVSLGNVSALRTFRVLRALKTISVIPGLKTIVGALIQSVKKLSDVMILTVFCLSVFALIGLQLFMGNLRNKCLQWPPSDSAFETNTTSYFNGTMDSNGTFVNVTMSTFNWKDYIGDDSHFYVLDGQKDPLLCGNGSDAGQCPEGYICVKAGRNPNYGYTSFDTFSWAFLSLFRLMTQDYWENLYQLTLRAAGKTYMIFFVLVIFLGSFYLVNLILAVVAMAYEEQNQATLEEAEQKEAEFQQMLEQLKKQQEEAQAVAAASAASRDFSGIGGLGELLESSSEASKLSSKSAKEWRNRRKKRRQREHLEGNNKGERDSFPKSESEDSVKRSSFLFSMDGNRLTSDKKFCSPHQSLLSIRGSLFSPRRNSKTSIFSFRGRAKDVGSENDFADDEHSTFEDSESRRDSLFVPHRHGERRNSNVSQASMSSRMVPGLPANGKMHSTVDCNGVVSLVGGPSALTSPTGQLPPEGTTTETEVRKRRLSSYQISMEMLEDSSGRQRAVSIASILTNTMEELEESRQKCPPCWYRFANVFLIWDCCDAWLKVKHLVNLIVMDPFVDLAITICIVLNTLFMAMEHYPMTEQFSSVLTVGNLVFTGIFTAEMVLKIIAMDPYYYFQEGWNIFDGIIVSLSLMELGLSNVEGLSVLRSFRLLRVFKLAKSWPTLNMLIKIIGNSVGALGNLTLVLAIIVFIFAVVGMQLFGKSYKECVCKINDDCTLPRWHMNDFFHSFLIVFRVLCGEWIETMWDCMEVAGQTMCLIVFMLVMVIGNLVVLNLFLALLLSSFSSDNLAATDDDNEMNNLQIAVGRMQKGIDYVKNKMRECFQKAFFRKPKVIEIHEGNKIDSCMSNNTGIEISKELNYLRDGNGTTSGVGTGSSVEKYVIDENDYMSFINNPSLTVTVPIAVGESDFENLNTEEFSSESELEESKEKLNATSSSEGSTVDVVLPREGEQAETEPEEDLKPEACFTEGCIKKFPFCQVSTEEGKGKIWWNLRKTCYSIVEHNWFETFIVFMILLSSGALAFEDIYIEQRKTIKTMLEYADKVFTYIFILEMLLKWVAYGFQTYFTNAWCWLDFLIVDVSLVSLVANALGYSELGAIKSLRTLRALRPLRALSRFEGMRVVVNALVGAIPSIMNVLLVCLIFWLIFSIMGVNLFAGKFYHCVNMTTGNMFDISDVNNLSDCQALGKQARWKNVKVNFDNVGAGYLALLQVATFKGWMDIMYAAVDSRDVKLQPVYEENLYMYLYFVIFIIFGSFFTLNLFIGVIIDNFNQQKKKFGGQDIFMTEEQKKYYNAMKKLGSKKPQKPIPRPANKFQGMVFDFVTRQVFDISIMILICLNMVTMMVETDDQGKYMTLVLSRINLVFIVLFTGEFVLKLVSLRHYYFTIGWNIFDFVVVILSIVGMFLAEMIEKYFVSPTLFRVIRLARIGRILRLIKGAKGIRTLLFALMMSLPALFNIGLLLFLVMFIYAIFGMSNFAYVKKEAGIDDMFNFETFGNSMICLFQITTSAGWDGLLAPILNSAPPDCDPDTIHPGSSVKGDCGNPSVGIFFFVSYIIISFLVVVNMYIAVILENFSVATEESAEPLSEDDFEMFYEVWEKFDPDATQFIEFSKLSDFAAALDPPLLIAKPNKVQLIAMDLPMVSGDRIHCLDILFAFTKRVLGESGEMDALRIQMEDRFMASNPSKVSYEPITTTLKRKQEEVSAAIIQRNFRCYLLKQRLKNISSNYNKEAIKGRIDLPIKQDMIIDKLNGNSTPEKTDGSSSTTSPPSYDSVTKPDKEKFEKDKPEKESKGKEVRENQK
structure (smiles),measurement,setting,value
CC[C@H](C)[C@H](NC(=O)[C@H](CCCCN)NC(=O)[C@@H]1CSSC[C@@H]2NC(=O)[C@@H]3CCCN3C(=O)[C@H](CCCNC(=N)N)NC(=O)[C@H](CCC(=O)O)NC(=O)[C@H](CO)NC(=O)[C@H](CC(=O)O)NC(=O)[C@@H]3CSSC[C@H](NC(=O)[C@H](C(C)C)NC(=O)[C@H](CC(C)C)NC(=O)CNC(=O)[C@H](CCC(=O)O)NC(=O)[C@H](CSSC[C@H](NC(=O)[C@@H](N)Cc4ccc(O)cc4)C(=O)N[C@@H](CCC(N)=O)C(=O)N[C@@H](CCCCN)C(=O)N[C@@H](Cc4ccccc4)C(=O)N[C@@H](CC(C)C)C(=O)N[C@@H](Cc4c[nH]c5ccccc45)C(=O)N[C@@H]([C@@H](C)O)C(=O)N3)NC2=O)C(=O)N[C@@H](CCCNC(=N)N)C(=O)N[C@@H](CC(C)C)C(=O)N[C@@H](Cc2c[nH]c3ccccc23)C(=O)N1)C(=O)N[C@@H](CC(N)=O)C(N)=O [sHsp1a],effect on heart muscle (heart rate),[1]; [3],no effect
same,effect on the respiratory musculature (oxygen saturation in peripheral blood),[1]; [3],no effect
same,effect on mouse body temperature,"[1]; mouse, in vivo",no effect
same,amount in human serum after 24 hours,[2],remained constant
same,V0.5 inactivation Δ,hNav1.7; [4],−11.62 mV
same,"Δτ, recovery from fast inactivation",hNav1.7; [4],1 ms
same,time for currents to recover following washout in peptide-free solution,hNav1.7; after application of 200 nM for 4 min,~10 min
same,time constant τ of recovery from fast inactivation,"hNav1.7; in presence of 60 nM, n=5, mean±SEM",5.03 ± 0.43 ms
same,inhibition of hNav1.3 currents,hNav1.3; at 200 nM,did not show any significant inhibition
same,inhibition at 2 µM,"hNav1.3; at 2 μM, read-out: max. current inhibition hNav1.3",< 50%
same,IC50,hNav1.3; read-out: pIC50 on hNav1.3 (converted),> 1000 nM
same,inhibition of hNav1.6 currents,hNav1.6; at 200 nM,did not show any significant inhibition
same,inhibition at 2 µM,"hNav1.6; at 2 μM, read-out: max. current inhibition hNav1.6",< 50%
same,IC50,hNav1.6; read-out: pIC50 on hNav1.6 (converted),> 1000 nM
same,hNav1.2 currents blocked,hNav1.2; at 200 nM,30%
same,inhibition at 2 µM,"hNav1.2; at 2 μM, read-out: max. current inhibition hNav1.2",60%
same,IC50,"hNav1.2; mean±S.E.M, read-out: pIC50 on hNav1.2 (converted)",302 nM
same,inhibition of hNav1.5 currents,hNav1.5; at 200 nM,did not show any significant inhibition
same,sensitivity of hNav1.5,hNav1.5; at 2 μM,insensitive
same,inhibition at 2 µM,"hNav1.5; at 2 μM, read-out: max. current inhibition hNav1.5",< 50%
same,IC50,hNav1.5; read-out: pIC50 on hNav1.5 (converted),> 1000 nM
same,hNav1.1 currents blocked,hNav1.1; at 200 nM,30%
same,inhibition at 2 µM,"hNav1.1; at 2 μM, read-out: current inhibition hNav1.1",75%
same,IC50,"hNav1.1; mean±S.E.M, read-out: pIC50 on hNav1.1 (converted)",407 nM
